{"source": "paper PMC3350394", "about": "“Kinetic analysis and test-retest variability of the radioligand [^11C](R)-PK11195 binding to TSPO in the human brain - a PET study in control subjects” (EJNMMI Research, 2012)", "origin": "cited, not measured here", "key": {"dopamine D2/3 receptor": {"biological_target": "dopamine D2/3 receptor", "design": "method as in PMID 2528555, PMID 8122313", "details": "approximately; read-out: affinity; cited from earlier work"}, "[1]": {"details": "same experimental setting and analytical approach; cited from earlier work"}, "[2]": {"design": "method as in PMID 2528555", "details": "cited from earlier work"}, "[3]": {"design": "method as in PMID 2528555", "details": "cited from earlier work", "remark": "listed apart in the source"}, "TSPO [4]": {"tested_on": "TSPO", "design": "method as in PMID 19948230", "details": "up; cited from earlier work"}, "TSPO [5]": {"tested_on": "TSPO", "design": "method as in PMID 15103694", "details": "unlabelled displacer; cited from earlier work"}, "[6]": {"tested_on": "alfa1-acid glycoprotein (AGP)", "design": "method as in PMID 12623120", "details": "cited from earlier work"}, "[7]": {"tested_on": "human serum albumin (HSA)", "design": "method as in PMID 12623120", "details": "relative to AGP; cited from earlier work"}}, "data": [{"molecule": "CCN1CCC[C@H]1CNC(=O)c1c(O)c(Cl)cc(Cl)c1OC", "note": "(racemic) [[^11C]raclopride]", "values": [{"measurement": "Kd", "setting": "dopamine D2/3 receptor", "result": "1 to 3", "unit": "nM"}]}, {"molecule": "CCN1CCC[C@H]1CNC(=O)c1c(O)c(Cl)cc(Cl)c1O[11CH3]", "note": "(racemic) [[^11C]raclopride]", "values": [{"measurement": "K1", "setting": "[1]", "result": 0.16}, {"measurement": "plasma protein binding", "setting": "[2]", "result": 96, "unit": "%"}, {"measurement": "first pass extraction", "setting": "[3]", "result": "about 20%"}]}, {"molecule": "COc1ccccc1CN(C(C)=O)c1cnccc1Oc1ccccc1", "note": "[PBR28]", "values": [{"measurement": "displacement of [11C](R)-PK11195 binding", "setting": "TSPO [4]", "result": "40% to 60"}]}, {"molecule": "CCC(C)N(C)C(=O)c1cc2ccccc2c(-c2ccccc2Cl)n1", "note": "(stereo not drawn) [PK11195, 1-(2-chlorophenyl)-N-methyl-N-(1-methylpropyl)-3-isoquinoline carboxamide]", "values": [{"measurement": "displacement of the total [11C]DAA1106 binding", "setting": "TSPO [5]", "result": "about 70%"}]}, {"molecule": "CCC(C)N(C)C(=O)c1cc2ccccc2c(-c2ccccc2Cl)n1", "note": "(stereo not drawn) [[^3 H]PK11195, 1-(2-chlorophenyl)-N-methyl-N-(1-methylpropyl)-3-isoquinoline carboxamide]", "values": [{"measurement": "binding to AGP", "setting": "[6]", "result": "high affinity"}, {"measurement": "binding to HSA", "setting": "[7]", "result": "to a lesser extent"}]}, {"molecule": "CCN1CCC[C@H]1CNC(=O)c1cc(Br)cc(OC)c1O[11CH3]", "note": "[[^11C]FLB-457]", "values": [{"measurement": "K1", "setting": "[1]", "result": 0.42}]}]}
